Patent US11040981B2, “Pyrrolotriazine compounds and methods of inhibiting TAM kinases” (Syros Pharmaceuticals, Inc., priority 2017, dated 2021)

Key:
FLT3 = target: T1, FLT3 (Homo sapiens, UniProt P36888); test: TR-FRET kinase activity assay, FLT3; assay type: biochemical; conditions: ATP at Km, 60 minutes
T1 sequence (P36888 27-993): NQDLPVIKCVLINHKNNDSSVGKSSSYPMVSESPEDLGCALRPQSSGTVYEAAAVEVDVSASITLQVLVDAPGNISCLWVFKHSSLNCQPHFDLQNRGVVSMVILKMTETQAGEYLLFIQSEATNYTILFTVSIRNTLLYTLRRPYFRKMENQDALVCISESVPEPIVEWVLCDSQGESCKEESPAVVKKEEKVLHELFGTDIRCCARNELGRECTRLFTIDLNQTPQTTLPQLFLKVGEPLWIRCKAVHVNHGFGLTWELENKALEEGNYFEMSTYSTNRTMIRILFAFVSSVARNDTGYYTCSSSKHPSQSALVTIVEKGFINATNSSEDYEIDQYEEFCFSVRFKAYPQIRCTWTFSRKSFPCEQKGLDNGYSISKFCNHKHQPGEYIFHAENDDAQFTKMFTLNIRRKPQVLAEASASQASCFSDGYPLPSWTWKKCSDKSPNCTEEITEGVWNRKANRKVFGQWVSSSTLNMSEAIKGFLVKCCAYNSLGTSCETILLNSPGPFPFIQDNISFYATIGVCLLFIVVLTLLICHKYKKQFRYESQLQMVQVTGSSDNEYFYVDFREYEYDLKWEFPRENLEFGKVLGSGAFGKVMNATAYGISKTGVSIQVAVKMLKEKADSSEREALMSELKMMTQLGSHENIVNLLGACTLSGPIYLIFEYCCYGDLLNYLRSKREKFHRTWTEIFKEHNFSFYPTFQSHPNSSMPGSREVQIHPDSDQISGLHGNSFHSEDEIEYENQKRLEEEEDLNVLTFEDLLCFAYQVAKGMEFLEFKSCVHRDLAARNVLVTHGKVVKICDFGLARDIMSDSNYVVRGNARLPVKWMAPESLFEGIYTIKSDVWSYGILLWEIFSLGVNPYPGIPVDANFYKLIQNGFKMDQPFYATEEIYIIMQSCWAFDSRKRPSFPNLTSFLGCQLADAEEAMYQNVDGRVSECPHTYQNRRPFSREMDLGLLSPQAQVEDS
Procedure, shortened: (§1)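 Enzyme, fluorescent peptide substrate and compound were mixed, and the reaction was started with ATP at each kinase's Km, in 50 mM HEPES pH 7.5, 10 mM MgCl2, 1 mM EGTA, 0.01% Brij 35, 1 mM DTT at RT. After 60 minutes EDTA quench, Eu-labelled phospho-specific antibody was added for 30 minutes, and IC50 was derived from TR-FRET signal loss.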

MERTK = target: T2, MERTK (Homo sapiens, UniProt Q12866); test: TR-FRET kinase activity assay, MERTK; assay type: biochemical; conditions: for IC50: TR-FRET activity assay, ATP at Km, 60 minutes, read-out: Mer IC50
T2 sequence (Q12866 21-999): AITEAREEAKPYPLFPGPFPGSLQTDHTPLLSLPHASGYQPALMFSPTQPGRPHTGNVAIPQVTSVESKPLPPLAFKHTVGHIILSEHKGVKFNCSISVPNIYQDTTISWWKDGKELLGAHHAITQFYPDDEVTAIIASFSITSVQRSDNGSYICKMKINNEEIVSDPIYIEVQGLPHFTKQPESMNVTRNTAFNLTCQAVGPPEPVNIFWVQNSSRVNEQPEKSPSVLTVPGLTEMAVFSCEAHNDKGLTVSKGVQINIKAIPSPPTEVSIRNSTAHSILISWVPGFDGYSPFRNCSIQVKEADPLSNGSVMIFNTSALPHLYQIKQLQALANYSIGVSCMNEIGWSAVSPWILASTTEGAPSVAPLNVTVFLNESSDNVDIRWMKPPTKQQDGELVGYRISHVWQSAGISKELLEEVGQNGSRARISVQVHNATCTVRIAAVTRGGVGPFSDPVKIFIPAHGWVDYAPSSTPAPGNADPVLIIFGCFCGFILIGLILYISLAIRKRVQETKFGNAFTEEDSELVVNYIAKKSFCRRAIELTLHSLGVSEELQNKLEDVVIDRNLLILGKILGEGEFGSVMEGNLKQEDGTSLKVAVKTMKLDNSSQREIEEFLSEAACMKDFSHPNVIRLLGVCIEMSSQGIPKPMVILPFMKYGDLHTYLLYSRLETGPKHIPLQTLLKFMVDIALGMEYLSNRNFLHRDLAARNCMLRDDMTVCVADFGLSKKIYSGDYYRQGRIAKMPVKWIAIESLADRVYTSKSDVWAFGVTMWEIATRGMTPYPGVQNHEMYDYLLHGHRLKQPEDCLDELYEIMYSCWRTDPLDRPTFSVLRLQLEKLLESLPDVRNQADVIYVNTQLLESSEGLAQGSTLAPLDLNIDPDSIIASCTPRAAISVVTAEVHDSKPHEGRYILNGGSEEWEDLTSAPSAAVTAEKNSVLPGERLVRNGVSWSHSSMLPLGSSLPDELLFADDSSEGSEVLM
Procedure, shortened: as §1

[1] = ratio calculated as FLT3 IC50/Mer IC50
[2] = ratio of Mer to FLT3: FLT3 IC50/Mer IC50

Row | IC50 (FLT3) [nM] | IC50 (MERTK) [nM] | FLT3/Mer ratio (FLT3 IC50/Mer IC50) (MERTK; [1]) | FLT3/Mer ratio (FLT3 IC50/Mer IC50) (MERTK; [2]) | SMILES
1 | ≤ 100 | ≤ 100 | +++ (“+++” represents a ratio of >100) | – | C[C@@H](CC(F)(F)F)Nc1ncc2c(C3=CCN(C(=O)OC(C)(C)C)CC3)cc([C@H]3CC[C@H](O)CC3)n2n1 [Compound 412]
2 | 100 to 1000 | ≤ 100 | – | +++ (“+++” represents a ratio of >100) | CNC(=O)c1cc(-c2cc([C@H]3CC[C@H](O)CC3)n3nc(N[C@@H](C)CC(F)(F)F)ncc23)cc(C)n1 [Compound 353]
3 | 100 to 1000 | ≤ 100 | +++ (“+++” represents a ratio of >100) | – | COC[C@H](C)Nc1ncc2c(-c3cnn([C@@H]4CO[C@H]5OCC[C@H]54)c3)cc([C@H]3CC[C@H](O)CC3)n2n1 [Compound 422]
4 | 100 to 1000 | ≤ 100 | +++ (“+++” represents a ratio of >100) | – | COC[C@H](C)Nc1ncc2c(-c3cnn(C4(C(=O)N5CCCC5)CC4)c3)cc([C@H]3CC[C@H](O)CC3)n2n1 [Compound 408]
5 | 1000 to 10000 | ≤ 100 | – | +++ (“+++” represents a ratio of >100) | COCC(C)Nc1ncc2c(C3CCN(C(C)=O)C3)cc(C3CCC(O)CC3)n2n1 (mixture of isomers) [Compound 383]
6 | 100 to 1000 | ≤ 100 | +++ (“+++” represents a ratio of >100) | – | COC[C@H](C)Nc1ncc2c(-c3ccnc(NC4CCOC4)c3)cc([C@H]3CC[C@H](O)CC3)n2n1 (stereo partly drawn) [Compound 418]
7 | 100 to 1000 | ≤ 100 | +++ (“+++” represents a ratio of >100) | – | CC1(Nc2ncc3c(-c4cnn(C5COC5)c4)cc(C4CCC(O)CC4)n3n2)COC1 (stereo not drawn) [Compound 399]
8 | 100 to 1000 | ≤ 100 | – | +++ (“+++” represents a ratio of >100) | COC[C@H](C)Nc1ncc2c(-c3ccnc(OC4CCNCC4)c3)cc([C@H]3CC[C@H](O)CC3)n2n1 [Compound 369]
9 | ≤ 100 | ≤ 100 | – | +++ (“+++” represents a ratio of >100) | CC(COC(F)F)Nc1ncc2c(-c3cnn(C(C)(C)C(=O)N4CCOCC4)c3)cc(C3CCC(O)CC3)n2n1 (stereo not drawn) [Compound 393]
10 | 100 to 1000 | ≤ 100 | +++ (“+++” represents a ratio of >100) | – | COC[C@H](C)Nc1ncc2c(-c3cnn(CC4COC4)c3)cc([C@H]3CC[C@H](O)CC3)n2n1 [Compound 420]
11 | 1000 to 10000 | ≤ 100 | – | +++ (“+++” represents a ratio of >100) | CNC(=O)c1cc(-c2cc([C@H]3CC[C@H](O)CC3)n3nc(N[C@@H](C)COC(F)F)ncc23)cc(C)n1 [Compound 385]
12 | 100 to 1000 | ≤ 100 | – | +++ (“+++” represents a ratio of >100) | COCC(C)Nc1ncc2c(-c3cnn(CC4CCCO4)c3)cc(C3CCC(O)CC3)n2n1 (stereo not drawn) [Compound 379]
13 | 100 to 1000 | ≤ 100 | – | +++ (“+++” represents a ratio of >100) | COC[C@H](C)Nc1ncc2c(-c3ccnc(O[C@H]4CCCNC4)c3)cc([C@H]3CC[C@H](O)CC3)n2n1 [Compound 389]
14 | 1000 to 10000 | ≤ 100 | +++ (“+++” represents a ratio of >100) | – | COC[C@H](C)Nc1ncc2c(-c3cnn(C4(C(=O)NC(C)C)CC4)c3)cc([C@H]3CC[C@H](O)CC3)n2n1 [Compound 415]
15 | 100 to 1000 | ≤ 100 | – | +++ (“+++” represents a ratio of >100) | COC[C@H](C)Nc1ncc2c(-c3ccnc(O[C@H]4CCNC4)c3)cc([C@H]3CC[C@H](O)CC3)n2n1 [Compound 386]
16 | 100 to 1000 | ≤ 100 | – | +++ (“+++” represents a ratio of >100) | CCCCC[C@H](C)Nc1ncc2c(C3=CCC(C(=O)O)CC3)cc([C@H]3CC[C@H](O)CC3)n2n1 (stereo partly drawn) [Compound 122, 4-(2-((S)-heptan-2-ylamino)-7-((trans)-4-hydroxycyclohexyl)pyrrolo[2,1-f][1,2,4]triazin-5-yl)cyclohex-3-enecarboxylic acid]
17 | 1000 to 10000 | ≤ 100 | – | +++ (“+++” represents a ratio of >100) | COC[C@H](C)Nc1ncc2c(-c3ccnc(C)c3)cc([C@H]3CC[C@@](C)(O)CC3)n2n1 [Compound 381]
18 | 100 to 1000 | ≤ 100 | – | +++ (“+++” represents a ratio of >100) | COC[C@H](C)Nc1ncc2c(-c3cnn(CC4CC(=O)N(C)C4)c3)cc([C@H]3CC[C@H](O)CC3)n2n1 (stereo partly drawn) [Compound 395]
19 | 100 to 1000 | ≤ 100 | +++ (“+++” represents a ratio of >100) | – | COC[C@H](C)Nc1ncc2c(-c3cnn([C@@H]4CCN(C(C)=O)C4)c3)cc([C@H]3CC[C@H](O)CC3)n2n1 [Compound 396]

Row | SMILES | IC50 (FLT3) [nM] | IC50 (MERTK) [nM] | FLT3/Mer ratio (FLT3 IC50/Mer IC50) (MERTK; [1]) | FLT3/Mer ratio (FLT3 IC50/Mer IC50) (MERTK; [2])
20 | CC(=O)N1CCN(Cc2ccc(-c3cc([C@H]4CC[C@H](O)CC4)n4nc(N[C@@H](C)COC(F)F)ncc34)cc2)CC1 [Compound 413] | ≤ 100 | ≤ 100 | ++ (“++” represents a ratio of between 10 and 100) | –
21 | COC[C@H](C)Nc1ncc2c(-c3ccc(CN4CCN(C)CC4)cc3)cc([C@H]3CC[C@H](O)CC3)n2n1 (single isomer, unassigned) [Compound 124] | 100 to 1000 | ≤ 100 | – | ++ (“++” represents a ratio of between 10 and 100)
22 | O[C@H]1CC[C@H](c2cc(-c3ccnc(N4CCOCC4)c3)c3cnc(N[C@H]4CCOC4)nn32)CC1 [Compound 362] | ≤ 100 | ≤ 100 | – | ++ (“++” represents a ratio of between 10 and 100)
23 | COC[C@H](C)Nc1ncc2c([C@@H]3CCCN(C(C)=O)C3)cc([C@H]3CC[C@H](O)CC3)n2n1 [Compound 372] | 1000 to 10000 | 100 to 1000 | – | ++ (“++” represents a ratio of between 10 and 100)
24 | OC1CCC(c2cc(-c3ccnc(N4CCOCC4)c3)c3cnc(NC4CCOC4)nn23)CC1 (stereo not drawn) [Compound 356] | ≤ 100 | ≤ 100 | – | ++ (“++” represents a ratio of between 10 and 100)
25 | C[C@@H](CC(F)F)Nc1ncc2c(-c3cnn(C4COC4)c3)cc([C@H]3CC[C@H](O)CC3)n2n1 [Compound 351] | ≤ 100 | ≤ 100 | – | ++ (“++” represents a ratio of between 10 and 100)
26 | C[C@H](CN(C)C)Nc1ncc2c(-c3cnn(C4COC4)c3)cc([C@H]3CC[C@H](O)CC3)n2n1 [Compound 388] | 1000 to 10000 | 100 to 1000 | – | ++ (“++” represents a ratio of between 10 and 100)
